According to US20260193668A1, “NOVEL PEPTIDES AND USE THEREOF FOR MODULATING PROTEIN ACCUMULATION” (UNIVERSITE TOULOUSE III - PAUL SABATIER, priority 2022, published 2026):

Tests used:
AP2 = experiment: Quantification of AP2 by Western blot in A. thaliana leaves; assay type: in vivo, Arabidopsis thaliana; details: A. thaliana leaves treated for 5 days with 100 μM peptide
Protocol: (§1) (a) Schematic representation of a gene encoding altORFs producing altPEPs. (b) ORF ranking distribution of altPEPs detected by MS. (c) Frequency of altPEPs detected by MS by length ranges. (d) Main root length of A. thaliana seedlings treated with 100 μM peptide for 4 days. (e, f) Quantification of DCL1 expression by RT-qPCR (e) and Western blot using anti-DCL1 antibodies (f) in A. thaliana leaves treated for 5 days with 100 μM peptide. (g, h) Quantification of COI1, AP2, CPK3 (g) and EIN2 (h) by Western blot using specific antibodies in A. thaliana leaves treated for 5 days with 100 μM peptide.
(§2) N. benthamiana plants were treated by spraying the leaves 24 h before harvesting. For Luc assays, 100 μL of MS/2 liquid medium containing the peptides was added to each well. 5 μL of luciferin was added and luciferase activity was read 30 min later using a spectrophotometer. All other assays were performed by spraying or watering the plants. To quantify the protein level induced by cPEPs in Arabidopsis, rosettes were sprayed daily with 100 μM of peptide or its control for 5 days. Leaves were harvested 6 h after the last treatment for western blot analysis. […] Chlorophyll content was measured using the SPAD chlorophylometer (Konica Minolta). Leaf area was measured using ImageJ software. […]

AP2 mRNA = experiment: Quantification by qRT PCR of AP2 expression in treated plants; assay type: in vivo, Arabidopsis thaliana; details: 100 μM peptide
Protocol: (§3) Quantification by qRT PCR of the expression of different genes in response to 100 μM of different peptides
(§4) (a) Treatment of plants with the peptide AtCOI1alt1; (b) Treatment of plants with the peptide AtAP2alt1; (c) Treatment of plants with the peptide AtEIN2alt1 (d) Treatment of plants with the peptide AtCPK3alt1.
(§5) Quantification of mRNAs was performed by qRT-PCR using appropriate primer pairs selected from the sequences: SEQ ID NOs: 367 to 374. Expression levels for the controls were set at 100. The primers used for the A. euteiches assays are described in Camborde et al (New Phytol. 233:2232-2248. 2022).

EIN2 = experiment: Quantification of EIN2 by Western blot in A. thaliana leaves; assay type: in vivo, Arabidopsis thaliana; details: A. thaliana leaves treated for 5 days with 100 μM peptide
Protocol: as §1, §2

EIN2 mRNA = experiment: Quantification by qRT PCR of EIN2 expression in treated plants; assay type: in vivo, Arabidopsis thaliana; details: 100 μM peptide
Protocol: as §3, §4, §5

A. thaliana seedlings [1] = experiment: Length of primary roots of A. thaliana seedlings treated with cPEP; assay type: in vivo, Arabidopsis thaliana; details: versus Scrambled cPEPdcl1
Protocol: (§6) (a, b) Length of primary roots of A. thaliana seedlings treated with a Scrambled cPEPdcl1 or with a cPEPdcl1. (c) Relative chlorophyll content of A. thaliana seedlings treated with the corresponding peptide. (d) Resumption of growth of A. thaliana seedlings after heat shock at 45° C. for 45 min and treated with the corresponding peptide. (e) Relative lesion area of A. thaliana seedlings infected with B. cinerea and treated with the indicated peptide. (f) Measurement of the flowering day of A. thaliana plants treated with the indicated peptides. (g, h) Flowering day of A. thaliana plants treated with an irrelevant peptide or a mixture of cPEPs (targeting EIN2, BR11, BAK1 and WUS). (i, j) Leaf area of A. thaliana plants treated with an irrelevant peptide or a mixture of cPEPs (targeting EIN2, BR11, BAK1 and WUS).
The work then focused on different A. thaliana proteins involved in different plant functions. […] 12:479-492, 2000), improved the viability of seedlings to heat shock (FIG. 7d). In parallel, several A. thaliana plant defence regulators were targeted, namely AGB1 (SEQ ID NO: 195), MAPKKK3 (SEQ ID NO: 187), JAR1 (SEQ ID NO: 192), MAPKKK5 (SEQ ID NO: 188), ABCG34 (SEQ ID NO: 194) and CPK3 (SEQ ID NO: 162). […] Next, several cPEPs were designed targeting different proteins involved in plant development by measuring the day of flowering. […]

A. thaliana seedlings [2] = experiment: Main root length of A. thaliana seedlings treated with altPEP; assay type: in vivo, Arabidopsis thaliana; details: A. thaliana seedlings treated with 100 μM peptide for 4 days
Protocol: as §1
To study the biological roles of altPEPs, two types of altPEPs were studied: one well conserved among Brassicaceae, and corresponding to the altORF18 of the DCL1 gene (FIG. 3c), and another, corresponding to the first altORF of the COI1 gene, but not conserved among Brassicaceae. A. thaliana seedlings were treated with the peptide AtDCL1alt18 (SEQ ID NO: 224) and root development analysed, since dcl mutants show longer main roots (Park, W., et al. Curr. Biol. 12, 1484-1495 (2002)).

DCL1 mRNA = experiment: Quantification of DCL1 expression by RT-qPCR in A. thaliana leaves; assay type: in vivo, Arabidopsis thaliana; details: A. thaliana leaves treated for 5 days with 100 μM peptide
Protocol: as §1, §5
N. benthamiana plants were treated by spraying the leaves 24 h before harvesting. […] 5 μL of luciferin was added and luciferase activity was read 30 min later using a spectrophotometer. […] To quantify the protein level induced by cPEPs in Arabidopsis, rosettes were sprayed daily with 100 μM of peptide or its control for 5 days. […] Chlorophyll content was measured using the SPAD chlorophylometer (Konica Minolta). Leaf area was measured using ImageJ software. […]

DCL1 = experiment: Western blot using anti-DCL1 antibodies in A. thaliana leaves; assay type: in vivo, Arabidopsis thaliana; details: A. thaliana leaves treated for 5 days with 100 μM peptide
Protocol: as §1, §2

M. truncatula roots = experiment: Quantification of nodules on M. truncatula roots; assay type: in vivo, Medicago truncatula; details: versus irrelevant peptide
Text: (a) FRET-FLIM analysis of the interaction between cPEPnsp1-FAM and NSP1 (left) or NSP1ΔcPEP (right) in planta. (b) qRT-PCR quantification of NSP1 expression in M. truncatula roots treated with cPEPnsp1 or Scrambled cPEPnsp1. (c) GUS quantification of peptide-treated M. truncatula roots carrying the Pro NSP1-NSP1-GUS fusion. (d, e) Quantification of NSP1 expression in N. benthamiana leaves after infiltration of different constructs: ‘wild type’ i.e. version of NSP1 wherein the cPEP sequence has been deleted (NSP1 ΔcPEP) or version of NSP1 wherein the cPEP sequence has been replaced by an artificial sequence (NSP1 ΔcPEP-cPEPartificial), with an empty vector (control) or cPEPnsp1 or cPEPartificial. (f, g) Formation of lateral roots of M. truncatula WT seedlings, nsp1 or overexpressing NSP1, in response to cPEPnsp1 or Scrambled cPEPnsp1. (h, i) Quantification of nodules on roots of M. truncatula roots treated with an irrelevant peptide or cPEPskl. […]
In order to verify whether cPEPs can target any protein, the activity of 12 cPEPs targeting 12 different proteins for which antibodies were available was studied and validated in three different plant species. The question was whether the increase in the quantity of proteins observed after treatment with cPEP was sufficient to modulate plant development. […]

A. thaliana seedlings [3] = experiment: Heat shock resistance test on A. thaliana seedlings; assay type: in vivo, Arabidopsis thaliana; details: 100 μM peptide, 45° C. for 45 min
Protocol: as §6
N. benthamiana plants were treated by spraying the leaves 24 h before harvesting. For Luc assays, 100 μL of MS/2 liquid medium containing the peptides was added to each well. 5 μL of luciferin was added and luciferase activity was read 30 min later using a spectrophotometer. […] To quantify the protein level induced by cPEPs in Arabidopsis, rosettes were sprayed daily with 100 μM of peptide or its control for 5 days. […] Chlorophyll content was measured using the SPAD chlorophylometer (Konica Minolta). Leaf area was measured using ImageJ software. […]

AtAP2alt1 (MGISYLGLWETSLLRWI; AtAP2alt1)
AP2 protein level (Western blot) (AP2): increase | AP2 mRNA expression (qRT PCR) (AP2 mRNA): without detecting any change

AtEIN2alt1 (MGCKYRRRCSFRV; AtEIN2alt1)
EIN2 protein level (Western blot) (EIN2): increase | EIN2 mRNA expression (qRT PCR) (EIN2 mRNA): without detecting any change

cPEPdcl1 (SRAFGSVFFSGD; cPEPdcl1)
primary root growth (A. thaliana seedlings [1]): reduction

AtDCL1alt18 (MLMLNPPRHHGILQRPTCLSLLLTIRLWNP; AtDCL1alt18)
root development (main root length) (A. thaliana seedlings [2]): decrease in root development | DCL1 mRNA expression (qRT-PCR) (DCL1 mRNA): no effect | DCL1 protein accumulation (Western blot) (DCL1): increased

cPEPskl (TETVGHEDAS; cPEPskl)
amount of nodules (M. truncatula roots): decrease

cPEPhsp101 (MQDMLNSLLCI; cPEPhsp101) [SEQ ID NO: 404, cPEP targeting the A. thaliana HSP101 protein]
viability of seedlings to heat shock (A. thaliana seedlings [3]): improved
